In patent US5059590A, “Imidazole derivatives, process for production thereof, and use thereof” (Yamasa Shoyu Kabushiki Kaisha, priority 1988, dated 1991):
Values after ≈ are worked out from the molar mass of the structure shown.

Legend:
Type in all cases: cell-based
[1] = test system: U-2OS; assay: In vitro anti-proliferative activity against human tumor cell lines (U-2OS); details: U2OS, Osteogenic sarcoma, 72 hours
Description: (§1) In vitro anti-proliferative activity against human tumor cell lines
(§2) Test Compound: 5-ethynyl-1-β-D-ribofuranosylimidazole-4-carboxamide
(§3) A variety of human tumor cell lines are suspended in media specified according to the species of the cell lines to predetermined cell concentrations as shown in the following Table.
(§4) 1 ml of the resulting cell suspension is seeded into each well of a 24 multi-well plate and incubated in a 5% CO2 -incubator at 37° C. for 24 hours. The culture medium is then replaced by a medium containing no test compound or by an appropriate amount of a serially diluted test compound solution. […] The number of the cells in each well is counted with a Coulter counter (Model ZB, Coulter Electronics), and the growth inhibition percent (%) of the cells at each concentration of a test compound is determined by the following equation: [formula] Tx: Number of the cells in a well containing a test compound as counted upon completion of the incubation (cells/ml) […] Cx: Number of the cells in a well containing no test compound as counted upon completion of the incubation (cells/ml)
(§5) Co: Number of the cells in a well containing no test compound as counted at the initiation of the incubation (cells/ml) […]

[2] = test system: SK-MES-1; assay: In vitro anti-proliferative activity against human tumor cell lines (SK-MES-1); details: SK-MES-1, Lung Squamous carcinoma, 72 hours
Description: as §1, §2, §3, §4, §5

[3] = test system: L1210 mouse leukemia cells; assay: In vitro anti-proliferative activity against mouse tumor cell lines, Test Method 1 (L1210); details: L1210, 48 hours, 37° C.
Description: In vitro anti-proliferative activity against mouse tumor cell lines
1. L1210 mouse leukemia cells are cultivated in RPMI1640 medium supplemented with 10% fetal bovine serum, and the resultant cells are diluted with the same medium in the logarithmic growth phase to a concentration of 1.6×10^5 cells/ml.
2. To test tubes each containing 0.9 ml of the above obtained diluted cell suspension is added 0.1 ml each of test solutions serially diluted with a culture medium or phosphate-buffered saline (PBS), and the mixture is incubated in a 2% CO2 -incubator at 37° C. for 48 hours.
3. After incubation, the number of the cells in each tube is counted with a Coulter counter (Model ZB, Coulter Electronics), and the growth inhibition percent (%) of the cells at each concentration of a test compound is calculated from the following equation: [formula] Tx: Number of the cells in a test tube containing a test compound as counted upon completion of the incubation (cells/ml)
Cx: Number of the cells in a test tube containing no test compound as counted upon completion of the incubation (cells/ml)
Co: Number of the cells in a test tube containing no test compound as counted at the initiation of the incubation (cells/ml)
4. The concentration of the test compound, which causes cell growth inhibition by 50%, is determined by the graph showing the relationship between the growth inhibition percent and the concentration of the test compound, and is defined as 50% inhibitory concentration (IC50).

[4] = test system: QG-56; assay: In vitro anti-proliferative activity against human tumor cell lines (QG-56); details: QG-56, Lung squamous carcinoma, 72 hours
Description: as §1, §2, §3, §4, §5

IC50 [1]: 0.62 µg/mL (≈ 2.32 µM)
IC50 [2]: 0.26 µg/mL (≈ 0.973 µM)
IC50 [3]: 0.18 µg/mL (≈ 0.674 µM)
IC50 [4]: 0.37 µg/mL (≈ 1.38 µM)
Structure (SMILES): C#Cc1c(C(N)=O)ncn1[C@@H]1O[C@H](CO)[C@@H](O)[C@H]1O [5-ethynyl-1-β-D-ribofuranosylimidazole-4-carboxamide]
